# Test results from patent US20230057602A1, “METHODS OF TREATMENT WITH ANTIBODIES AGAINST BCMA AND CD3” (BRISTOL-MYERS SQUIBB COMPANY, priority 2019, published 2023).
# Columns and labels:
# Type in all cases: cell-based, human
# [1] = tested on: H929 BCMA-expressing myeloma cell line co-cultured with T-cells; assay: CC-93269-induced cytokine secretion, T-cell co-culture with H929; conditions: 1 μM DEX vs DMSO control, highest concentration of CC-93269, 72 hours, 3 donors
# BCMA+ tumour cell lines = assay: CC-93269-induced redirected lysis of BCMA+ tumour cell lines (overall); conditions: co-treatment with CC-93269
# Method: The cocultures were incubated at 37° C. with 5% CO2. After 72 hours of incubation, culture supernatants were harvested and stored at −80° C. The cells were labeled with Live/Dead Fixable Aqua Dead Cell Stain, according to the manufacturer's instructions for 30 minutes at RT. Subsequently, cells were stained with antibodies against the following cell surface markers: CD2, CD3, CD4, CD8, CD69, CD25, HLA-DR, and CD154 in a final volume of 50 μL of flow staining buffer. After staining for cell surface molecules, the cells were washed once with 150 μL flow staining buffer, resuspended in 50 μL of BD Cytofix fixation buffer, and incubated for 30 minutes at RT. Cells were washed with 150 μL of flow staining buffer and resuspended in a final volume of 50 μL of flow staining buffer for analysis on an IQUE Screener plus instrument (Intellicyt, Albuquerque, N. Mex.). […] The IC50 values were calculated using non-linear regression analysis, sigmoidal dose-response using GraphPad Prism (version 5.0) software.
# [2] = tested on: SKMM2 BCMA-expressing myeloma cell line co-cultured with T-cells; assay: CC-93269-induced cytokine secretion, T-cell co-culture with SKMM2; conditions: 1 μM DEX vs DMSO control, highest concentration of CC-93269, 72 hours, 3 donors
# [3] = tested on: BCMA-expressing tumour cell lines co-cultured with T-cells; assay: CC-93269-mediated cytokine release across the four co-cultures; conditions: 1 μM DEX vs DMSO control, highest concentration of CC-93269
# [4] = tested on: KMS12-PE BCMA-expressing myeloma cell line co-cultured with T-cells; assay: CC-93269-induced cytokine secretion, T-cell co-culture with KMS12-PE; conditions: 1 μM DEX vs DMSO control, highest concentration of CC-93269, 72 hours, 3 donors
# [5] = tested on: MM1S BCMA-expressing myeloma cell line co-cultured with T-cells; assay: CC-93269-induced cytokine secretion, T-cell co-culture with MM1S; conditions: 1 μM DEX vs DMSO control, highest concentration of CC-93269, 72 hours, 3 donors
structure (smiles),measurement,setting,value
"C[C@@H]1C[C@H]2[C@@H]3CCC4=CC(=O)C=C[C@]4(C)[C@@]3(F)[C@@H](O)C[C@]2(C)[C@@]1(O)C(=O)CO [Dexamethasone, dexamethasone]","% Reduction of CC-93269-induced IL-2 secretion, Mean",[1],74.1%
same,"% Reduction of CC-93269-induced TNF-α secretion, Mean",[1],61.8%
same,effect of dexamethasone on CC-93269-induced redirected lysis / cytotoxic activity,BCMA+ tumour cell lines,minimally affected
same,effect of dexamethasone on CC-93269-induced redirected lysis / cytotoxic activity,BCMA+ tumour cell lines; listed as dexamethasone,minimal suppressive impact
same,"% Reduction of CC-93269-induced IL-2 secretion, Mean",[2],56.5%
same,"% Reduction of CC-93269-induced TNF-α secretion, Mean",[2],46.3%
same,lowering of CC-93269-mediated release of IL-2,[3],48.3-74.1%
same,lowering of CC-93269-mediated release of TNF-α,[3],46.3-61.8%
same,"% Reduction of CC-93269-induced IL-2 secretion, Mean",[4],48.3%
same,"% Reduction of CC-93269-induced TNF-α secretion, Mean",[4],53.9%
same,"% Reduction of CC-93269-induced IL-2 secretion, Mean",[5],57.6%
same,"% Reduction of CC-93269-induced TNF-α secretion, Mean",[5],50.3%
